Laboratory results published in ChEMBL document CHEMBL3430912, “GSK Tres Cantos Anti-Kinetoplastid Screening (TCAKS) Data”.

Experiments:
Trypanosoma cruzi [1] = experiment: GSK_TCAKS: pIC50 Trypanosoma cruzi viability assay using beta-GAL activity. This assay was run at single shot at 5uM compound concentration per well. The biological reagents consisted of NIH-3T3 host cells and trypomastigotes parasitic cells; both cell types were set to a 3.3 * 10^5 cells/mL dilution in assay DMEM by means of a CASY cell counter device using a 60um capillary. 6 uL of the mixture were dispensed per well (about 1 * 10^3 host-cells and 1 * 10^3 parasites) with a Multidrop Combi dispenser. […] In all wells, the percentage of DMSO never exceeded 0.5%. Plates incubated for four days at 37C, 5% CO2. The substrate used for the assay fluorescence intensity (FLINT) readout was resorufin-beta-D-galactopiranoside (Sigma-Aldrich) at 5uM per well. It was diluted in PBS supplemented with the soft detergent Igepal (Fluka).; assay type: functional, organism-based, Mus musculus; details: Tulahuen, NIH3T3
Trypanosoma cruzi [2] = experiment: (§1) GSK_TCAKS: pIC50 Trypanosoma cruzi Imaging: Infected Cells. […] Cells were then washed once with PBS before infection. T. cruzi trypomastigotes, collected at days 5 to 8 after infection from LLC-MK2 parasite infected cultures, were allowed to swim out for 4h at 37C from a centrifuged pellet (2,500 rpm/10 min/room temperature). Trypomastigotes were then collected and counted in a CASY Cell Counter. Trypomastigotes, in supplemented DMEM, were added to H9c2 cultures in a multiplicity of infection of 1 and incubated for 18 h. Cells were washed once with PBS before incubation of the infected H9c2 monolayer with trypsin (Life-Technologies) to detach cells from the flask. Cells were counted in a CASY Cell Counter using a 150 um capillary and their density set at 5 * 10^4 cells per mL in supplemented assay DMEM. Infected H9c2 were dispensed into 384-well poly-lysine coated assay plates at 50uL per well using a Multidrop Combi dispenser. After seeding them, the plates were incubated at 37C, 5% CO2 for 72h. Cultures were then fixed and stained by addition of 50 uL of a solution containing 8% formaldehyde and 4 uM DRAQ5 DNA dye (BioStatus, UK) per well. […] Five images were collected per well for reliable statistical analysis. Automated image analysis was performed with a script developed on Acapella High Content Imaging and Analysis Software (PerkinElmer). Output: percentage of infected cells per well as a second infection marker.; assay type: functional, organism-based, Rattus norvegicus; details: H9c2, 4 h
Trypanosoma cruzi [3] = experiment: GSK_TCAKS: pIC50 Trypanosoma cruzi Imaging: Amastigotes/Cell. […] Cells were then washed once with PBS before infection. T. cruzi trypomastigotes, collected at days 5 to 8 after infection from LLC-MK2 parasite infected cultures, were allowed to swim out for 4h at 37C from a centrifuged pellet (2,500 rpm/10 min/room temperature). Trypomastigotes were then collected and counted in a CASY Cell Counter. Trypomastigotes, in supplemented DMEM, were added to H9c2 cultures in a multiplicity of infection of 1 and incubated for 18 h. Cells were washed once with PBS before incubation of the infected H9c2 monolayer with trypsin (Life-Technologies) to detach cells from the flask. Cells were counted in a CASY Cell Counter using a 150 um capillary and their density set at 5 * 10^4 cells per mL in supplemented assay DMEM. Infected H9c2 were dispensed into 384-well poly-lysine coated assay plates at 50uL per well using a Multidrop Combi dispenser. After seeding them, the plates were incubated at 37C, 5% CO2 for 72h. Cultures were then fixed and stained by addition of 50 uL of a solution containing 8% formaldehyde and 4 uM DRAQ5 DNA dye (BioStatus, UK) per well. […] Five images were collected per well for reliable statistical analysis. Automated image analysis was performed with a script developed on Acapella High Content Imaging and Analysis Software (PerkinElmer). Output: number of amastigotes per cell as infection level measurement.; assay type: functional, organism-based, Rattus norvegicus; details: H9c2, 4 h
Trypanosoma cruzi [4] = experiment: as §1, with “H2C9” for “Trypanosoma cruzi”, “H9c2 Host Cardiomyocytes.” for “Infected Cells.”, “Number” for “percentage”, “H9c2 Host Cardiomyocytes nuclei to determine drug-related cytotoxicity.” for “infected cells per well as a second infection marker.”; assay type: functional, organism-based, Rattus norvegicus; details: H9c2, 4 h
Leishmania donovani [5] = experiment: GSK_TCAKS: pIC50 Leishmania donovani viability assay using fluorescence intensity. Assay plates (1536-well) were prepared by adding 30nL per well of compound. For single shot assay, the final compound concentration was 5uM. […] Briefly, eGFP LdBOB axenic amastigotes were harvested, fixed and counted in a CASY cell counter (Roche-Applied Science). A final concentration of 1.5 * 10^5 cells per well were prepared in amastigote media containing 500 U/mL penicillin/streptomycin (Invitrogen) and 6uL was dispensed to each experimental well using a Multidrop Combi dispenser (Thermo Scientific). 6uL of assay media was dispensed to control columns used as reference for 100% compound response. Following incubation for 72 h at 37C, 5% CO2, 2 uL of resazurin was added to each well at a final concentration of 0.5 mM in phosphate buffered saline (PBS) with IGEPAL (Sigma-Aldrich), 0.05% (v/v).; assay type: functional, organism-based
Leishmania donovani [6] = experiment: GSK_TCAKS: pIC50 Leishmania donovani Imaging: Infected Macrophages. Assay plates (384-well) were prepared by adding 250nL of compound to each well. For single shot assay, the final compound concentration was 5 uM. […] Automated image analysis was performed with a script developed on Acapella High Content Imaging and Analysis Software (PerkinElmer). Output: Percent of infected macrophage cells were reported for each well.; assay type: functional, organism-based, Homo sapiens; details: THP-1
Leishmania donovani [7] = experiment: GSK_TCAKS: pIC50 Leishmania donovani Imaging: Amastigotes/Macrophages. Assay plates (384-well) were prepared by adding 250nL of compound to each well. For single shot assay, the final compound concentration was 5 uM. […] Automated image analysis was performed with a script developed on Acapella High Content Imaging and Analysis Software (PerkinElmer). Output: Average number of amastigotes per macrophage cell were reported for each well.; assay type: functional, organism-based, Homo sapiens; details: THP-1
Leishmania donovani [8] = experiment: GSK_TCAKS: pIC50 Leishmania donovani Imaging: THP-1 Host Macrophages. Assay plates (384-well) were prepared by adding 250nL of compound to each well. For single shot assay, the final compound concentration was 5 uM. […] Automated image analysis was performed with a script developed on Acapella High Content Imaging and Analysis Software (PerkinElmer). Output: THP-1 cell count were reported for each well.; assay type: functional, organism-based, Homo sapiens
[9] = test system: Trypanosoma brucei brucei; experiment: GSK_TCAKS: pIC50 Trypanosoma brucei viability assay using fluorescence intensity. Assay plates (1536-well) were prepared by dispensing 25nL of compound solution per well using an Echo acoustic dispenser (Labcyte).; assay type: functional, organism-based; details: Lister 427, 2 h
[10] = test system: Trypanosoma brucei brucei; experiment: GSK_TCAKS: pIC50 Trypanosoma brucei viability assay using luminiscence. Assay plates (1536-well) were prepared. T. brucei cultures were harvested and counted in a CASY cell counter. A parasite suspension was prepared at a final concentration of 5 * 10^4 cells/mL in complete HMI9 medium and 6uL was dispensed to all wells containing compounds using a Multidrop Combi dispenser. 6uL of HMI9 media with 0.4% DMSO were dispensed to control columns. Plates were incubated for 24 h at 37C, 5% CO2 then tempered for 10 min at room temperature. ATP content was quantified by adding 4 uL of CellTiter-Glo Reagent (Promega) according to the manufacturer's instructions. Luminescence was measured using a ViewLux.; assay type: functional, organism-based; details: Lister 427, CASY
[11] = GSK_TCAKS: pIC50 HepG2 human cell line viability assay using luminiscence. […] Seeding density was checked to ensure that new mono-layers were not more than 50% confluent at the time of harvesting. Cell suspension was added to 500 mL of the same medium at a final density of 1.2 * 10^5 cells/mL. This cell suspension was dispensed (25 uL, 3000 cells per well) into 384-well clear-bottom plates using a Multidrop Combi dispenser. Prior to addition of the cell suspension, the screening compounds (250 nL) were pre-dispensed into the plates with an Echo liquid handler. Plates were incubated for 48 h at 37C, 5% CO2. After incubation, plates equilibrated at room temperature for 30 min before proceeding to develop the luminescent signal. The signal developer, CellTiter-Glo Reagent, was allowed to equilibrate at room temperature for 30 min and added to the plates (25uL per well) using a Multidrop Combi dispenser. Plates were left for 10 min at room temperature for stabilization and then read using a ViewLux.; assay type: toxicity, cell-based
[12] = biological target: Sterol 14-alpha demethylase (Trypanosoma cruzi (strain CL Brener), UniProt Q7Z1V1); experiment: GSK_TCAKS: pIC50 CYP51 from Trypanosoma cruzi.; assay type: functional
Sterol 14-alpha demethylase, sequence (Q7Z1V1 whole entry): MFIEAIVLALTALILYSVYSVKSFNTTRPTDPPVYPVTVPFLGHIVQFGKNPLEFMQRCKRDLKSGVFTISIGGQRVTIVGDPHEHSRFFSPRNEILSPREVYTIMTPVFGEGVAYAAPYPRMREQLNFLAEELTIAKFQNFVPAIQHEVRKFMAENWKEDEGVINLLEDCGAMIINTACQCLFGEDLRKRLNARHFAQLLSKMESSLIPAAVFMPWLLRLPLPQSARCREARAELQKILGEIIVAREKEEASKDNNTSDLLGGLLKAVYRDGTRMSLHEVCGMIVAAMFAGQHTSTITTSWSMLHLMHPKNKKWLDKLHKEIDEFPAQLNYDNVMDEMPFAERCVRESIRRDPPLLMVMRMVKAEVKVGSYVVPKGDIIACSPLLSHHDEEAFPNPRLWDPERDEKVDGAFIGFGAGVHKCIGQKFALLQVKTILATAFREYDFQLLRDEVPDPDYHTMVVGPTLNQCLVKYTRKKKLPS

Compound | IC50 (Trypanosoma cruzi [1]) [µM] | IC50 (Trypanosoma cruzi [2]) [µM] | IC50 (Trypanosoma cruzi [3]) [µM] | IC50 (Trypanosoma cruzi [4]) [µM] | IC50 (Leishmania donovani [5]) [µM] | IC50 (Leishmania donovani [6]) [µM] | IC50 (Leishmania donovani [7]) [µM] | IC50 (Leishmania donovani [8]) [µM] | IC50 [9] [µM] | IC50 [10] [µM] | IC50 at 48 h [11] [µM] | IC50 [12] [µM]
O=C(Nc1nc2cc(Cl)ccc2o1)c1cccc(Cl)c1 | 0.794 | 0.794 | 0.631 | 2.51 | 0.398 | > 50.1 | > 50.1 | 6.31 | 0.794 | 0.794 | > 100 | > 100
COc1cc(-c2noc(CC#N)n2)ccc1OC(F)F | 39.8 | 39.8 | 25.1 | 31.6 | > 50.1 | > 50.1 | > 50.1 | 50.1 | 0.631 | 0.631 | > 100 | 100
O=C(Nc1ccc(-c2nc3ccccc3c(=O)[nH]2)cc1)c1cccs1 | 3.16 | > 50.1 | > 50.1 | > 50.1 | > 50.1 | > 50.1 | > 50.1 | > 50.1 | 0.251 | 1 | > 100 | > 100
CS(=O)(=O)c1ccccc1C(=O)N(Cc1ccccc1)c1ccccc1 | 50.1 | > 50.1 | 39.8 | > 50.1 | 15.8 | > 50.1 | 15.8 | > 50.1 | 0.398 | 0.631 | > 100 | 20
O=c1cc(NCCCNCc2cc(C(F)(F)F)cs2)[nH]c2ccccc12 | 7.94 | > 50.1 | 5.01 | 31.6 | > 50.1 | 39.8 | 25.1 | 20 | 0.316 | 0.398 | 63.1 | 25.1
O=C(Nc1ccc(C(F)(F)F)cc1)Nc1cccc([N+](=O)[O-])c1 | 1 | 1.26 | 0.794 | 5.01 | 7.94 | 2.51 | 2 | 6.31 | 2 | 2 | 10 | 6.31
CC(=O)NCCNc1cc(-c2ccnc(Nc3cccc(Cl)c3)n2)ccn1 | 0.398 | 1.58 | 0.158 | 0.398 | 0.316 | 0.251 | 0.1 | 0.1 | 0.2 | 0.2 | 25.1 | 5.01
O=C(c1cccc(Nc2ncc(-c3ccc4c(c3)OCO4)cn2)c1)N1CCOCC1 | 6.31 | 1.26 | 0.794 | 6.31 | 2 | 3.98 | 1.58 | > 63.1 | 25.1 | > 50.1 | > 126 | 20
Fc1ccc(Nc2nc(-c3ccccn3)cs2)cc1 | 2.51 | 5.01 | 5.01 | 1 | 20 | 10 | 6.31 | > 50.1 | 25.1 | 25.1 | > 100 | 15.8
COc1ccc(Nc2nc(-c3ccccn3)cc(N3CCCC(O)C3)n2)cc1 (centres undefined) | 0.631 | 5.01 | 7.94 | 3.98 | 2.51 | 1 | 0.794 | 25.1 | 3.98 | 12.6 | 39.8 | 50.1
CC(=O)Nc1ccc(-c2ccnc(Nc3cccc(C#N)c3)n2)cc1 | 6.31 | 6.31 | 3.16 | 12.6 | 39.8 | 15.8 | 10 | 10 | 0.631 | 0.794 | > 100 | 25.1
O=c1nc(NCCCNCc2cc(Br)cc(Br)c2)[nH]c2ccsc12 | 0.631 | 0.631 | 0.398 | 25.1 | 15.8 | 5.01 | 2.51 | 15.8 | 0.1 | 0.1 | 50.1 | 31.6
